Data taken from patent EP0115820A2, “Cephalosporin derivatives and process for their preparation” (Kaken Pharmaceutical Co., Ltd., priority 1983, dated 1984).

How the values were obtained:
Test in all cases: Minimum inhibitory concentration (MIC)
Assay type in all cases: cell-based
[1] = test system: Klebsiella pneumoniae No. 42; settings: Klebsiella pneumoniae No. 42; bacterial suspension 10^6 cells/ml; sodium salts tested; read-out: Minimum inhibitory concentration
Description: (§1) The cephalosporin derivatives of the present invention are novel substances, and the antimicrobial activities of their sodium salts are shown by the minimum inhibitory concentrations (MIC, µg/ml) in Table 1, as compared with a typical known cephalosporin compound.

[2] = test system: Serratia marcescens No. 16-2; settings: NO.162; Serratia marcescens No. 16-2; bacterial suspension 10^6 cells/ml; sodium salts tested; read-out: Minimum inhibitory concentration
Description: as §1

[3] = test system: Escherichia coli NIHJ JC-2; settings: NIHJJC2; Escherichia coli NIHJ JC-2; bacterial suspension 10^6 cells/ml; sodium salts tested; read-out: Minimum inhibitory concentration
Description: as §1

[4] = test system: Pseudomonas aeruginosa K-13; settings: K13; Pseudomonas aeruginosa K-13; bacterial suspension 10^6 cells/ml; sodium salts tested; read-out: Minimum inhibitory concentration
Description: as §1

[5] = test system: Pseudomonas aeruginosa Y-1; settings: Y1; Pseudomonas aeruginosa Y-1; bacterial suspension 10^6 cells/ml; sodium salts tested; read-out: Minimum inhibitory concentration
Description: as §1

Proteus vulgaris GN-76 = settings: GN76; Proteus vulgaris GN-76; bacterial suspension 10^6 cells/ml; sodium salts tested; read-out: Minimum inhibitory concentration
Description: as §1

[6] = test system: Staphylococcus aureus 209 P JC-1; settings: 209PJC1; Staphylococcus aureus 209 P JC-1; bacterial suspension 10^6 cells/ml; sodium salts tested; read-out: Minimum inhibitory concentration
Description: as §1

[7] = test system: Pseudomonas aeruginosa E-2; settings: E2; Pseudomonas aeruginosa E-2; bacterial suspension 10^6 cells/ml; sodium salts tested; read-out: Minimum inhibitory concentration
Description: as §1

Structure (SMILES) | MIC [1] [µg/mL] | MIC [2] [µg/mL] | MIC [3] [µg/mL] | MIC [4] [µg/mL] | MIC [5] [µg/mL] | MIC (Proteus vulgaris GN-76) [µg/mL] | MIC [6] [µg/mL] | MIC [7] [µg/mL]
CCOC(=O)Oc1ccc(C(=O)NC(C(=O)N[C@]2(OC)C(=O)N3C(C(=O)O)=C(COC(C)=O)CS[C@@H]32)c2csc(N)n2)cc1OC(=O)OCC (mixture of isomers) [Example 13, 7α -methoxy-7β-[DL-2-(3,4-diethoxy-carbonyloxybenzoylamino)-2-(2-aminothiazol-4-yl)-acetamido]cephalosporic acid] | 0.39 | 3.12 | 12.5 | 1.56 | 0.78 | 6.25 | 1.56 | 0.78
CC(=O)OCC1=C(C(=O)O)N2C(=O)[C@@H](NC(=O)C(NC(=O)c3cccc(OC(C)=O)c3)c3csc(N)n3)[C@H]2SC1 (mixture of isomers) [Example 16, 7β-[DL-2-(3-acetoxybenzoylamino)-2-(2-aminothiazol-4-yl)acetamidolcephalosporic acid] | 3.12 | > 200 | 1.56 | 200 | > 200 | 6.25 | 0.39 | 200
CC(=O)Oc1ccc(C(=O)NC(C(=O)N[C@@H]2C(=O)N3C(C(=O)O)=C(CSc4nnnn4C)CS[C@H]23)c2csc(N)n2)cc1OC(C)=O (mixture of isomers) [Example 1, 7β-[DL-2-(3,4-diacetoxybenzoylamino)-2-(2-aminothiazol-4-yl)acetamido]-3-(1-methyl-1H-tetrazol-5-yl-thiomethyl)-3-cephem-4-carboxylic acid] | 0.1 | 6.25 | 0.2 | 0.2 | 0.05 | 0.39 | 0.78 | 0.2
CC(=O)OCC1=C(C(=O)O)N2C(=O)[C@@H](NC(=O)C(NC(=O)c3cc(O)c(O)c(O)c3)c3csc(N)n3)[C@H]2SC1 (mixture of isomers) [Example 25, 7β-[DL-2-(3,4,5-trihydroxy-benzoylamino)-2-(2-aminothiazol-4-yl)acetamido]-cephalosporic acid] | 0.1 | > 100 | 0.2 | 0.39 | 0.1 | 1.56 | 0.2 | 0.2
CC(=O)OCC1=C(C(=O)O)N2C(=O)[C@@H](NC(=O)C(NC(=O)c3ccc(OC(C)=O)cc3)c3csc(N)n3)[C@H]2SC1 (mixture of isomers) [Example 17, 7β-[DL-2-(4-acetoxybenzoylamino)-2-(2-aminothiazol-4-yl)acetamido]cephalosporic acid] | 3.12 | > 200 | 0.78 | 100 | 200 | 6.25 | 0.2 | 100
CC(=O)Oc1cccc(C(=O)NC(C(=O)N[C@@H]2C(=O)N3C(C(=O)O)=C(CSc4nnnn4C)CS[C@H]23)c2csc(N)n2)c1OC(C)=O (mixture of isomers) [Example 4, 7β-[DL-2-(2,3-diacetoxybenzoylamino)-2-(2-aminothiazol-4-yl)acetamidol-3-(l-methyl-lH-tetrazol-5-yl-thiomethyl)-3-cephem-4-carboxylic acid] | 1.56 | 200 | 3.12 | 0.39 | 0.78 | 3.12 | 1.56 | 1.56
CC(=O)OCC1=C(C(=O)O)N2C(=O)[C@@H](NC(=O)C(NC(=O)c3cccc(O)c3O)c3csc(N)n3)[C@H]2SC1 (mixture of isomers) [Example 21, 7β-[DL-2-(2,3-dihydroxybenzoylamino)-2-(2-aminothiazol-4-yl)acetamido]cephalosporic acid] | 0.39 | > 200 | 1.56 | 0.78 | 3.12 | 1.56 | 3.12 | 0.39
CO[C@@]1(NC(=O)C(NC(=O)c2ccc(OC(C)=O)c(OC(C)=O)c2)c2csc(N)n2)C(=O)N2C(C(=O)O)=C(COC(C)=O)CS[C@@H]21 (mixture of isomers) [Example 6, 7α-methoxy-7β-[DL-2-(3,4-diacetoxy-benzoylamino)-2-(2-aminothiazol-4-yl)acetamido]-cephalosporic acid] | 0.39 | 6.25 | 3.12 | 1.56 | 0.78 | 12.5 | 1.56 | 0.78
CCOC(=O)Oc1ccc(C(=O)NC(C(=O)N[C@@H]2C(=O)N3C(C(=O)O)=C(COC(C)=O)CS[C@H]23)c2csc(N)n2)cc1OC(=O)OCC (mixture of isomers) [Example 19, 7β-[DL-2-(3,4-diethoxycarbonyloxy-benzoylamino)-2-(2-aminothiazol-4-yl)acetamido]-cephalosporic acid] | 0.05 | 6.25 | 0.39 | 0.2 | 0.05 | 0.39 | 0.39 | 0.2
CC(=O)OCC1=C(C(=O)O)N2C(=O)[C@@H](NC(=O)C(NC(=O)c3ccccc3OC(C)=O)c3csc(N)n3)[C@H]2SC1 (mixture of isomers) [Example 15, 7β-[DL-2-(2-acetoxybenzoylamino)-2-(2-aminothiazol-4-yl)acetamido]cephalosporic acid] | 6.25 | 200 | 1.56 | 25 | 50 | 6.25 | 0.39 | 25
